Values joined by “and” are separate entries in the source; they are usually repeats but may differ in a detail not shown here. Identical values can stand only once. Toxic doses and inconclusive results are not listed.

For the experiment, the system named is BDF1 mice, B16 melanoma ip, median survival T/C. In words: NCI In Vivo Anticancer Drug Screen. Data for tumor model B16 Melanoma (intraperitoneal) in B6D2F1 (BDF1) mice. To be noted: endpoint: median survival time, higher = longer survival. In a few lines:
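Survival or tumor size is measured after treatment of tumor-bearing mice and normalised to the vehicle-treated control group.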

[1] abbreviates: dose: 4.0 mg/kg/injection, schedule: Q01DX009 (ip), vehicle: saline.
Setting [2] is: dose: 8.0 mg/kg/injection, schedule: Q01DX009 (ip), vehicle: saline.
Setting [3] is: dose: 12.5 mg/kg/injection, schedule: Q01DX009 (ip), vehicle: saline with Tween-80.
Setting [4] is: dose: 25.0 mg/kg/injection, schedule: Q01DX009 (ip), vehicle: saline with Tween-80.
The mark [5] stands for this setting: dose: 50.0 mg/kg/injection, schedule: Q01DX009 (ip), vehicle: saline with Tween-80.
[6] abbreviates: dose: 100.0 mg/kg/injection, schedule: Q01DX009 (ip), vehicle: saline with Tween-80.
[7] abbreviates: dose: 1.56 mg/kg/injection, schedule: Q01DX009 (ip), vehicle: saline.
Where [8] appears, read: dose: 3.12 mg/kg/injection, schedule: Q01DX009 (ip), vehicle: saline.
Where [9] appears, read: dose: 12.5 mg/kg/injection, schedule: Q01DX009 (ip), vehicle: saline.
The mark [10] stands for this setting: dose: 25.0 mg/kg/injection, schedule: Q01DX009 (ip), vehicle: saline.
Where [11] appears, read: dose: 200.0 mg/kg/injection, schedule: Q01DX009 (ip), vehicle: saline with Tween-80.
Where [12] appears, read: dose: 25.0 mg/kg/injection, schedule: Q01DX009 (ip), vehicle: Klucel (hydroxypropylcellulose) (HPC).
The mark [13] stands for this setting: dose: 50.0 mg/kg/injection, schedule: Q01DX009 (ip), vehicle: Klucel (hydroxypropylcellulose) (HPC).
Where [14] appears, read: dose: 100.0 mg/kg/injection, schedule: Q01DX009 (ip), vehicle: Klucel (hydroxypropylcellulose) (HPC).
Setting [15] is: dose: 200.0 mg/kg/injection, schedule: Q01DX009 (ip), vehicle: Klucel (hydroxypropylcellulose) (HPC).

In the case of `O=CC(NC(=O)N(CCCl)N=O)C(O)C(O)C(O)CO` (centres undefined), the T/C is 153 % of control (dose: 1.3 mg/kg/injection, schedule: Q01DX009 (ip), vehicle: saline); 101 % of control and 201 % of control (dose: 3.0 mg/kg/injection, schedule: Q01DX009 (ip), vehicle: saline); 198 % of control under setting [1]; 109 % of control and 201 % of control (dose: 4.5 mg/kg/injection, schedule: Q01DX009 (ip), vehicle: saline); 154 % of control (dose: 6.25 mg/kg/injection, schedule: Q01DX001 (ip), vehicle: saline); 287 % of control (dose: 6.7 mg/kg/injection, schedule: Q01DX009 (ip), vehicle: saline). In addition, the T/C was 184 % of control (dose: 7.5 mg/kg/injection, schedule: Q01DX001 (ip), vehicle: saline with Tween-80); 91 % of control under setting [2]; 159 % of control (dose: 10.0 mg/kg/injection, schedule: Q01DX009 (ip), vehicle: saline); 191 % of control (dose: 12.5 mg/kg/injection, schedule: Q01DX001 (ip), vehicle: saline); 201 % of control (dose: 13.0 mg/kg/injection, schedule: Q01DX001 (ip), vehicle: saline); 284 % of control (dose: 15.0 mg/kg/injection, schedule: Q01DX001 (ip), vehicle: saline with Tween-80). The T/C runs as follows: (dose: 20.0 mg/kg/injection, schedule: Q01DX001 (ip), vehicle: saline) 163 % of control and 259 % of control; (dose: 25.0 mg/kg/injection, schedule: Q01DX001 (ip), vehicle: saline) 277 % of control; (dose: 30.0 mg/kg/injection, schedule: Q01DX001 (ip), vehicle: saline with Tween-80) 285 % of control; (dose: 30.0 mg/kg/injection, schedule: Q01DX001 (ip), vehicle: saline) 114 % of control and 287 % of control; (dose: 67.0 mg/kg/injection, schedule: Q01DX001 (ip), vehicle: saline) 287 % of control.

`O=C(CCl)Nc1nccs1`: the T/C runs as follows: under setting [3], 103 % of control; under setting [4], 100 % of control; under setting [5], 93 % of control; under setting [6], 87 % of control.

Consider `CC[n+]1c(-c2ccccc2)c2cc(N)ccc2c2ccc(N)cc21`, for which the T/C (dose: 0.75 mg/kg/injection, schedule: Q01DX009 (ip), vehicle: water) is 98 % of control; the T/C (dose: 1.0 mg/kg/injection, schedule: Q01DX009 (ip), vehicle: saline) was 95 % of control; the T/C (dose: 1.5 mg/kg/injection, schedule: Q01DX009 (ip), vehicle: water) is 106 % of control; the T/C under setting [7] was 105 % of control; the T/C (dose: 2.0 mg/kg/injection, schedule: Q01DX009 (ip), vehicle: saline) is 95 % of control; the T/C (dose: 3.0 mg/kg/injection, schedule: Q01DX009 (ip), vehicle: water) was 108 % of control. Further, the T/C by setting is: under setting [8], 158 % of control; (dose: 4.0 mg/kg/injection, schedule: Q01DX009 (ip), vehicle: saline sonified) 120 % of control; under setting [1], 108 % of control; (dose: 6.0 mg/kg/injection, schedule: Q01DX009 (ip), vehicle: water) 112 % of control; (dose: 8.0 mg/kg/injection, schedule: Q01DX009 (ip), vehicle: saline sonified) 115 % of control; under setting [2], 108 % of control.

As for `O=C(OCCOCCN1CCCCC1)N1c2ccccc2Sc2cccnc21`, the T/C under setting [8] was 100 % of control, the T/C under setting [9] is 100 % of control and the T/C under setting [10] was 102 % of control.

As for `ClCCN(CC#CCCCC#CCN(CCCl)CCCl)CCCl`, the T/C is 111 % of control under setting [7], 123 % of control under setting [8], 173 % of control under setting [9] and 156 % of control under setting [10].

Turning to `Cc1ccccc1SSc1ccccc1C`, the T/C was 105 % of control under setting [3]; 104 % of control under setting [4]; 98 % of control under setting [5]; 103 % of control under setting [6]; 98 % of control under setting [11].

In the case of `Cc1ccc(S(=O)(=O)NC(=O)C2C(=O)CC3(CCCCC3)CC2=O)cc1`, the T/C under setting [12] is 97 % of control; the T/C under setting [13] is 100 % of control and 111 % of control; the T/C under setting [14] is 96 % of control and 113 % of control; the T/C under setting [15] is 94 % of control.

Turning to `O=[N+]([O-])c1cccs1`, the T/C (dose: 25.0 mg/kg/injection, schedule: Q04DX003 (ip), vehicle: Klucel (hydroxypropylcellulose) (HPC)) was 105 % of control; the T/C (dose: 50.0 mg/kg/injection, schedule: Q04DX003 (ip), vehicle: Klucel (hydroxypropylcellulose) (HPC)) is 105 % of control; the T/C (dose: 100.0 mg/kg/injection, schedule: Q04DX003 (ip), vehicle: Klucel (hydroxypropylcellulose) (HPC)) was 112 % of control.

With `CCCC1CC[N-]CC1.CCCC1CC[N-]CC1.[Br][Pt+2]([Br])([Br])[Br]`, the T/C runs as follows: (dose: 3.13 mg/kg/injection, schedule: Q01DX009 (ip), vehicle: water) 98 % of control; (dose: 6.25 mg/kg/injection, schedule: Q01DX009 (ip), vehicle: water) 102 % of control; (dose: 12.5 mg/kg/injection, schedule: Q01DX009 (ip), vehicle: water) 97 % of control.

Take `CC(C)(C)C1CCC(C(=O)O)CC1` (centres undefined): the T/C is 95 % of control under setting [5], 90 % of control under setting [6] and 90 % of control under setting [11].

Regarding `CCc1cc(Cc2cc(CC)cc(C(C)(C)C)c2O)c(O)c(C(C)(C)C)c1`, the T/C reads like this: under setting [14], 88 % of control; under setting [15], 88 % of control; (dose: 400.0 mg/kg/injection, schedule: Q01DX009 (ip), vehicle: Klucel (hydroxypropylcellulose) (HPC)) 89 % of control.

For the compound `OCC1OC(Oc2ccc(O)cc2)C(O)C(O)C1O` (centres undefined), the T/C (dose: 50.0 mg/kg/injection, schedule: Q01DX009 (ip), vehicle: saline) is 100 % of control; the T/C (dose: 100.0 mg/kg/injection, schedule: Q01DX009 (ip), vehicle: saline) is 99 % of control; the T/C (dose: 200.0 mg/kg/injection, schedule: Q01DX009 (ip), vehicle: saline) was 96 % of control; the T/C (dose: 400.0 mg/kg/injection, schedule: Q01DX009 (ip), vehicle: saline) was 101 % of control.

Take `O=C(O)C1(Cl)CC2C=CC1C2` (centres undefined): the T/C by setting is: (dose: 50.0 mg/kg/injection, schedule: Q04DX003 (ip), vehicle: saline with Tween-80) 105 % of control; (dose: 100.0 mg/kg/injection, schedule: Q04DX003 (ip), vehicle: saline with Tween-80) 97 % of control; (dose: 200.0 mg/kg/injection, schedule: Q04DX003 (ip), vehicle: saline with Tween-80) 88 % of control.

For `C/C(=N\O)c1ccccn1`, the T/C was 110 % of control (dose: 50.0 mg/kg/injection, schedule: Q01DX009 (ip), vehicle: other); 111 % of control (dose: 100.0 mg/kg/injection, schedule: Q01DX009 (ip), vehicle: other); 97 % of control (dose: 200.0 mg/kg/injection, schedule: Q01DX009 (ip), vehicle: other); 90 % of control (dose: 400.0 mg/kg/injection, schedule: Q01DX009 (ip), vehicle: other).

Turning to `CNNCc1ccc(C(=O)NC(C)C)cc1`, the T/C reads like this: (dose: 37.5 mg/kg/injection, schedule: Q01DX009 (ip), vehicle: water) 121 % of control; (dose: 40.0 mg/kg/injection, schedule: Q01DX009 (ip), vehicle: saline with Tween-80) 108 % of control; (dose: 54.0 mg/kg/injection, schedule: Q01DX009 (ip), vehicle: saline) 123 % of control; (dose: 90.0 mg/kg/injection, schedule: Q01DX009 (ip), vehicle: saline) 120 % of control; (dose: 250.0 mg/kg/injection, schedule: Q01DX009 (ip), vehicle: saline) 123 % of control; (dose: 320.0 mg/kg/injection, schedule: Q01DX009 (ip), vehicle: saline with Tween-80) 98 % of control.

In the case of `O=[N+]([O-])c1ccc2scc3c4ccccc4nc-3c2c1`, the T/C runs as follows: (dose: 6.25 mg/kg/injection, schedule: Q01DX009 (ip), vehicle: saline) 90 % of control; under setting [9], 99 % of control.

On to `COc1cc2c(cc1OC)C(CCc1ccc(Cl)cc1)N(C)CC2` (centres undefined), for which the T/C was 88 % of control under setting [12], 93 % of control under setting [13], 98 % of control under setting [14] and 93 % of control under setting [15].

These data come from PubChem BioAssay AID192 (DTP/NCI, 2004).
